Results on ten compounds are retold here after paper PMC7033671 (ACS Omega, 2020).

Each structure is given as a SMILES string. Where only a bound is given, the exact number is not on record here.

One assay relates to K562. The experiment in a line: CellTiter-Blue cell viability, K562. Type of assay: cell-based, human. Particulars: for IC50: Homo sapiens, K562, 72 h, read-out: IC50 against K562.
The test system of the next assay is KCL22. Briefly: CellTiter-Blue cell viability, KCL22. Type of assay: cell-based, human. The settings on record: for IC50: Homo sapiens, KCL-22, 72 h, read-out: IC50 against KCL22.
For another assay, the system named is KCL22-IR. The experiment in a line: CellTiter-Blue cell viability, KCL22-IR. Type of assay: cell-based, human. Particulars: for IC50: Homo sapiens, 72 h, read-out: IC50 against KCL22-IR. On the technique in general: Alamar Blue is a resazurin reagent that responds to reducing activity.
The next assay addresses T1, FLT3 (ITD) (Homo sapiens, UniProt P36888, ITD).
T1 sequence (P36888 564-993): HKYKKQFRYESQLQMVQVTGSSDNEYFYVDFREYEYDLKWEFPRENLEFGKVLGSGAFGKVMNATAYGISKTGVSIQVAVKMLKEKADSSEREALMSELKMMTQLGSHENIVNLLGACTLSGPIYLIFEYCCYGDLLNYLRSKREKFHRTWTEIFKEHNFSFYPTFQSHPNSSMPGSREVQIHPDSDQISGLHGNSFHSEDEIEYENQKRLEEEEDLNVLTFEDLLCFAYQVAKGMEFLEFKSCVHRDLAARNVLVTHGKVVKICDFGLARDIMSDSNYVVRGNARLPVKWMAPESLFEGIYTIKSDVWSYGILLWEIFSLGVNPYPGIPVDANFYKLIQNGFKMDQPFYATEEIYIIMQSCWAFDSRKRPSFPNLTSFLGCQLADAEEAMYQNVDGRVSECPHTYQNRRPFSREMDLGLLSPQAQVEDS
The experiment in a line: Reaction Biology 33P-ATP kinase assay, FLT3. The settings on record: read-out: inhibition against FLT3(ITD).

The next assay has as its target MNK2 (Homo sapiens, UniProt Q9HBH9). Briefly: biochemical. Particulars: read-out: inhibition of MNK2.
The next assay addresses ABL1 (T315I) (Homo sapiens, UniProt P00519, T315I). Briefly: Reaction Biology 33P-ATP kinase assay, ABL1. The settings on record: read-out: inhibition against ABL1(T315I).
In the next assay the target is c-SRC (Homo sapiens, UniProt P12931). The experiment in a line: Reaction Biology 33P-ATP kinase assay, c-SRC. Particulars: read-out: inhibition against c-Src.
Chain of c-SRC (P12931 whole entry): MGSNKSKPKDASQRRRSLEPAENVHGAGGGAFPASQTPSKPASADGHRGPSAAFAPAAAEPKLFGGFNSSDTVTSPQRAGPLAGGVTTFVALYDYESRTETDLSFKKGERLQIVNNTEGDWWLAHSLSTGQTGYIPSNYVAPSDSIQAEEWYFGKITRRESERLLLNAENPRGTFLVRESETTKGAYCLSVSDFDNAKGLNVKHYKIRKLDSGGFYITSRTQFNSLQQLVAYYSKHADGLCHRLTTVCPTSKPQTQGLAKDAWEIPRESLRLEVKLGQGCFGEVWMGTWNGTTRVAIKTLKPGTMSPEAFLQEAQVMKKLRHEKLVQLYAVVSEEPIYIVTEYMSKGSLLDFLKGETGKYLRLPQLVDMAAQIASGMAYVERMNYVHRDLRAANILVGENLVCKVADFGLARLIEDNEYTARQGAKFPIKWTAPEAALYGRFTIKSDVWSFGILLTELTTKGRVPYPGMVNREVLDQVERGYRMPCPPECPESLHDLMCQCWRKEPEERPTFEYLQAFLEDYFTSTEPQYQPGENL
Another assay has as its system MOLM14. The experiment in a line: CellTiter-Blue cell viability, MOLM14. The class given is cell-based. Particulars: Homo sapiens, MOLM-14, 72 h, read-out: IC50 against MOLM14.
Another assay addresses c-Kit (Homo sapiens, UniProt P10721). The experiment in a line: Reaction Biology 33P-ATP kinase assay, c-Kit. Type of assay: biochemical.
The next assay deals with T2, FLT3 (D835Y) (Homo sapiens, UniProt P36888, D835Y).
T2 sequence (P36888 27-993 D835Y): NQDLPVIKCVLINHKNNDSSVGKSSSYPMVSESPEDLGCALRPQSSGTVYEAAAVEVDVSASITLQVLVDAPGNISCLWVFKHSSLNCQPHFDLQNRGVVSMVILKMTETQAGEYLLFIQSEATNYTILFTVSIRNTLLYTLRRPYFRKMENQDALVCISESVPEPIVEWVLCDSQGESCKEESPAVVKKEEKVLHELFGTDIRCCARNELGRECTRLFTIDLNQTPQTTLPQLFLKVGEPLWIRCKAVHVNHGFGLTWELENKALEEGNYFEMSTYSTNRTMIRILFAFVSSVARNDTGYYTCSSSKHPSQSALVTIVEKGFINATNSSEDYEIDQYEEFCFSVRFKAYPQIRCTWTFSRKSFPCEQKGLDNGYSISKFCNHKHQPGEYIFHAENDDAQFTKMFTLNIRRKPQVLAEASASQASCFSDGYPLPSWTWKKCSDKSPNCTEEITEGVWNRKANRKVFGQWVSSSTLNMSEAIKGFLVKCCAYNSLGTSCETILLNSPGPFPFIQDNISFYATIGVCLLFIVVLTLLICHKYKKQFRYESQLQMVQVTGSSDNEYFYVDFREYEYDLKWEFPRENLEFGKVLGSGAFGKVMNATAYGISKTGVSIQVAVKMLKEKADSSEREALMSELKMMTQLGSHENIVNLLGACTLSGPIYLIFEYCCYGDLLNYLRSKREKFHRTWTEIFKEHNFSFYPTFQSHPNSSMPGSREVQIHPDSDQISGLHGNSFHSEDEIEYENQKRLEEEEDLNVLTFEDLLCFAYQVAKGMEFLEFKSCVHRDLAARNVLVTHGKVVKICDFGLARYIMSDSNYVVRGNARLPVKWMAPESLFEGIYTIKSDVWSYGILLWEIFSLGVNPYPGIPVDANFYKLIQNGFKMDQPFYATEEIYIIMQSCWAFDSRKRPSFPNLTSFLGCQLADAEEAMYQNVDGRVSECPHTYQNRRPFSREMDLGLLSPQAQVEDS
Briefly: Reaction Biology 33P-ATP kinase assay, FLT3. The settings on record: read-out: inhibition against FLT3(D835Y).

The subject of a further assay is MV-4-11. The experiment in a line: CellTiter-Blue cell viability, MV-4-11. Particulars: Homo sapiens, MV4-11, 72 h, read-out: IC50 against MV-4-11. The class given is cell-based.
The next assay deals with MOLM13-res. Briefly: CellTiter-Blue cell viability, MOLM13-res. The settings on record: Homo sapiens, 72 h, read-out: IC50 against MOLM13-res. The class given is cell-based.
The test system of the next assay is MOLM14-D835Y. Briefly: CellTiter-Blue cell viability, MOLM14-D835Y. Type of assay: cell-based. The settings on record: Homo sapiens, 72 h, read-out: IC50 against MOLM14-D835Y.
For another assay, the system named is MOLM14-F691L. Briefly: CellTiter-Blue cell viability, MOLM14-F691L. Type of assay: cell-based. Particulars: Homo sapiens, MOLM-14, 72 h, read-out: IC50 against MOLM14-F691L.
The next assay deals with LC2/Ad. Briefly: CellTiter-Blue cell viability, LC2/Ad. The class given is cell-based. Particulars: Homo sapiens, LC-2-ad, 72 h, read-out: IC50 against LC2/Ad.
For the next assay, the system named is H520. The experiment in a line: CellTiter-Blue cell viability, H520. Type of assay: cell-based. The settings on record: Homo sapiens, NCI-H520, 72 h, read-out: IC50 against H520.

For orientation: inhibition means the share of the control response that was lost under treatment.

Chain of MNK2 (Q9HBH9 whole entry): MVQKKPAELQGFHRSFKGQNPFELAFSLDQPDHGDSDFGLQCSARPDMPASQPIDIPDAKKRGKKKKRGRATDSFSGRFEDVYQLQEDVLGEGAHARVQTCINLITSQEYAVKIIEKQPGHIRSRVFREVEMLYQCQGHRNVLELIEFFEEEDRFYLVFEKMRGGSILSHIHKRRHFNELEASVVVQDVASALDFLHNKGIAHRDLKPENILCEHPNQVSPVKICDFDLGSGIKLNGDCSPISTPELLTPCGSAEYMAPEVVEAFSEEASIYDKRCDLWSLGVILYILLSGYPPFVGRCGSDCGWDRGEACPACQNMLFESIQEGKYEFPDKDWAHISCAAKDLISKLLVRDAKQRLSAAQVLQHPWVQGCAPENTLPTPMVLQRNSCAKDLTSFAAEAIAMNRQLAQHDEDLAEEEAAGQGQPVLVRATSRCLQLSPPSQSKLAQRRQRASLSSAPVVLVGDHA
Chain of c-Kit (P10721 26-976): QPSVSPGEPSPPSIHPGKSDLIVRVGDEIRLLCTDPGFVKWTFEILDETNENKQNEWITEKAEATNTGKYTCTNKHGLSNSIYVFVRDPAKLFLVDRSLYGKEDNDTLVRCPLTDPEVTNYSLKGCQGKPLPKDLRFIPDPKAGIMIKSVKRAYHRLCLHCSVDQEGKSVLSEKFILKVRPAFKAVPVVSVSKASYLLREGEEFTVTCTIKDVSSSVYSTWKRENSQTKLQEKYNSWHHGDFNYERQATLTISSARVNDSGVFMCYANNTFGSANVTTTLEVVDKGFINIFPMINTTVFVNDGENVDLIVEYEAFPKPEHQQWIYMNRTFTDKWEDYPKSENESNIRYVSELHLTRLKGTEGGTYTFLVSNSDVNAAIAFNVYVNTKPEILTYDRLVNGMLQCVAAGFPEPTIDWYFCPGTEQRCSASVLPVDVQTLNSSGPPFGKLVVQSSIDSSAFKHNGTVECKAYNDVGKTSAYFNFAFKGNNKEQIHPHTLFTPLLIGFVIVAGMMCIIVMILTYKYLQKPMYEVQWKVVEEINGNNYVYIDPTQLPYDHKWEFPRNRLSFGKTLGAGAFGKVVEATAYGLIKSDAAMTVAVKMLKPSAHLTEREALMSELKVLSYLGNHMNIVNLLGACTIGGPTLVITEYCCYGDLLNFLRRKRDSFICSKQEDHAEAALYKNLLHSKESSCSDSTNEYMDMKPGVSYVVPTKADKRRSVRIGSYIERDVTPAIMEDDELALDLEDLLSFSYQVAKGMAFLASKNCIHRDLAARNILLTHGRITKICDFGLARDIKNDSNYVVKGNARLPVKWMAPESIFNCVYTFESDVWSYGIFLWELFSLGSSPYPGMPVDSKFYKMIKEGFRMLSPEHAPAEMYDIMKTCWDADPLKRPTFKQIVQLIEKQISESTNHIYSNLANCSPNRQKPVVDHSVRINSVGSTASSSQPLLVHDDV

`CN1CCN(Cc2ccc(NC(=O)c3cccc(C#Cc4cnc5cccnn45)c3)cc2C(F)(F)F)CC1` [HSL331, 3-(Imidazo[1,2-b]pyridazin-3-ylethynyl)-N-(4-((4-methylpiperazin-1-yl)methyl)-3-(trifluoromethyl)phenyl)benzamide]: the IC50 was found to be 0.26 ± 0.002 nM in the assay with K562, 0.63 ± 0.002 nM with KCL22 and 2.86 ± 0.04 nM in the assay on KCL22-IR.

Take `CN1CCN(Cc2ccc(C(=O)Nc3cncc(C#Cc4cnc5cccnn45)c3)cc2C(F)(F)F)CC1` [HSL338, N-(5-(Imidazo[1,2-b]pyridazin-3-ylethynyl)pyridin-3-yl)-4-((4-methylpiperazin-1-yl)methyl)-3-(trifluoromethyl)benzamide]: the IC50 in the assay with K562 was determined as 0.45 ± 0.002 nM; in the assay on KCL22, 1.4 ± 0.02 nM; in the assay with KCL22-IR, 4.24 ± 0.05 nM. The inhibition at 0.004 µM at FLT3 (ITD) worked out at 84%.

On to `CN1CCN(Cc2ccc(NC(=O)c3cncc(C#Cc4cnc5ccccn45)c3)cc2C(F)(F)F)CC1` [HSL381, 5-(Imidazo[1,2-a]pyridin-3-ylethynyl)-N-(4-((4-methylpiperazin-1-yl)methyl)-3-(trifluoromethyl)phenyl)nicotinamide], for which the IC50 in the assay with K562 came to 0.57 ± 0.003 nM; in the assay with KCL22 it was 0.89 ± 0.005 nM; in the assay with KCL22-IR, 4.24 ± 0.05 nM. The inhibition at 0.123 µM at MNK2 amounted to 84%; on ABL1 (T315I), 73%. In addition, the inhibition at 0.004 µM on FLT3 (ITD) turned out to be 91%.

In the case of `CN1CCN(Cc2ccc(NC(=O)c3cncc(C#Cc4cnc5ncccn45)c3)cc2C(F)(F)F)CC1` [HSL382, 5-(Imidazo[1,2-a]pyrimidin-3-ylethynyl)-N-(4-((4-methylpiperazin-1-yl)methyl)-3-(trifluoromethyl)phenyl)nicotinamide], the “IC50 against K562” value in the assay with K562 (CML cell line (ABL1), 72 h treatment) was “inactive”. The “IC50 against KCL22” value in the assay with KCL22 (CML cell line, 72 h treatment) was “inactive”. Further, the IC50 with KCL22 and with KCL22-IR was > 100 nM throughout. The “IC50 against KCL22-IR” value with KCL22-IR (imatinib-resistant CML line, 72 h treatment) is “inactive”.

In the case of `CN1CCN(Cc2ccc(NC(=O)c3cncc(C#Cc4cnc5cnccn45)c3)cc2C(F)(F)F)CC1` [HSL385, 5-(Imidazo[1,2-a]pyrazin-3-ylethynyl)-N-(4-((4-methylpiperazin-1-yl)methyl)-3-(trifluoromethyl)phenyl)nicotinamide], the values for the IC50 in the assay with K562, with KCL22 and with KCL22-IR were 0.94 ± 0.002 nM, 2.62 ± 0.06 nM and 17.2 ± 0.86 nM, respectively. The inhibition at 0.123 µM at MNK2 was 72%.

On to `CN1CCN(Cc2ccc(NC(=O)c3cncc(C#Cc4cncc5nccn45)c3)cc2C(F)(F)F)CC1` [HSL407, 5-(Imidazo[1,2-a]pyrazin-5-ylethynyl)-N-(4-((4-methylpiperazin-1-yl)methyl)-3-(trifluoromethyl)phenyl)nicotinamide], for which the IC50 stood at 1.83 ± 0.02 nM with K562, 2.93 ± 0.04 nM in the assay with KCL22 and 49.7 ± 2.5 nM in the assay with KCL22-IR.

In the case of `CN1CCN(Cc2ccc(NC(=O)c3cncc(C#Cc4cnc5ccnn5c4)c3)cc2C(F)(F)F)CC1` [HSL412, N-(4-((4-Methylpiperazin-1-yl)methyl)-3-(trifluoromethyl)phenyl)-5-(pyrazolo[1,5-a]pyrimidin-6-ylethynyl)nicotinamide], the IC50 in the assay on K562 was 28.1 ± 0.6 nM; with KCL22 it was 28.1 ± 0.37 nM; in the assay with KCL22-IR, > 100 nM.

Turning to `Cc1ncc(C(=O)Nc2ccc(CN3CCN(C)CC3)c(C(F)(F)F)c2)cc1C#Cc1cnc2cccnn12` [HSL420, 5-(Imidazo[1,2-b]pyridazin-3-ylethynyl)-6-methyl-N-(4-((4-methylpiperazin-1-yl)methyl)-3-(trifluoromethyl)phenyl)nicotinamide], the IC50 in the assay on K562 was 0.06 ± 0.002 nM; in the assay on KCL22, 0.06 ± 0.002 nM; with KCL22-IR it was 0.46 ± 0.01 nM. In addition, on c-SRC, the inhibition at 0.111 µM came to 32%. The inhibition at 0.123 µM on ABL1 (T315I) came out at 83%.

On to `CN1CCN(Cc2ccc(NC(=O)c3cncc(C#Cc4cnc5cccnn45)c3)cc2C(F)(F)F)CC1` [HSN748, 5-(Imidazo[1,2-b]pyridazin-3-ylethynyl)-N-(4-((4-methylpiperazin-1-yl)methyl)-3-(trifluoromethyl)phenyl)nicotinamide], for which the IC50 in the assay on MOLM14 was determined as 0.25 nM; on c-Kit, 96 ± 4.21 nM. Besides, the inhibition at 0.123 µM at MNK2 was 85%. Besides, the inhibition at 0.111 µM on c-SRC was < 10%; at FLT3 (D835Y), 87%. In addition, the inhibition at 0.004 µM at FLT3 (ITD) turned out to be 86%.

Consider `Cc1ccc(C(=O)Nc2ccc(CN3CCN(C)CC3)c(C(F)(F)F)c2)cc1C#Cc1cnc2cccnn12` [ponatinib, reference compound], for which the IC50 in the assay on K562 was found to be 0.6 ± 0.002 nM; with KCL22 it was 0.14 ± 0.003 nM; in the assay on KCL22-IR it was 0.66 ± 0.005 nM; in the assay on MV-4-11 it was 0.09 nM; in the assay with MOLM13-res it was 24.1 nM; in the assay on MOLM14, 0.45 nM. The IC50 is 52.6 nM in the assay on MOLM14-D835Y, 6.8 nM in the assay on MOLM14-F691L, 35.1 nM in the assay on LC2/Ad and 128 nM in the assay on H520. On MNK2, the inhibition at 0.123 µM stood at 32%. Besides, at c-SRC, the inhibition at 0.111 µM worked out at 98%. For the same compound, the inhibition at 0.004 µM on FLT3 (ITD) was < 40%.
